Measured values taken from US9290427B2, “Anti-invasive compounds” (Universiteit Gent, priority 2012, dated 2016).
Several values for one entry are separate records, joined by “and”; a condition that tells them apart may be missing. Equal entries are not always repeated.

Legend:
3T3-L1 cells = assay: SRB test, 3T3-L1; assay type: cell-based, murine; details: 10 μmol·L−1, 24 h, decreasing trend, not significant
Protocol: The SRB assay is used to evaluate growth effects on cells, and measures the total protein content. In this test, 5,000 cells are seeded in a cup of a 96-well plate. Upon a 24 h-attachment period, cells are treated with a certain amount of the test molecule (dissolved in DMSO). After a pre-chosen incubation time, cells are fixed with 50 μL of 50% trichloroacetic acid (2° C., 1 h). Afterward, the plate is rinsed five times with tap water, and air dried overnight.
Next, proteins are stained with 75 μL of a 0.4% solution of SRB in AcOH (30 min). Unbound SRB is subsequently removed by washing with a 1% solution of glacial AcOH, whereupon the plate is air dried. Then, bound SRB is redissolved in 100 μL of a 10 mmol·L^−1 tris(hydroxymethyl)aminomethane (Tris) buffer (pH=10.5), after which optical density is determined at 490 nm with a spectrophotometer.
(§1) In order to verify whether the antiproliferative effects of compound 49, witnessed in BLM and MCF-7/6 cells at high concentrations, were cell specific, additional SRB and MTT assays on a further five cell lines (HCT8-E11, TR146, FaDu, 3T3-L1 and CT5.3) were conducted (FIG. 8). The results for MCF-7/6 cells were added to facilitate comparison.
The CT5.3 cell line consists of human myofibroblasts which were isolated from a colon tumor (Van Hoorde et al., 1999). […]

BLM cells = assay: Matrigel invasion assay; assay type: cell-based; details: for Number of invasive BLM-cells found at the basolateral side of the filter: 24 h, samples 1 and 2
Text: An interesting method to determine the invasive capacity of cells and the anti-invasive potential of different substances is the matrigel invastion assay. Matrigel can be considered to be a basal membrane and is obtained from mice EHS sarcomas (tumors having an abundant expression of extracellular matrix proteins). The primary component of a matrigel is laminin, further also including collagen IV, heparan, sulphate proteoglycans and growth factors. It is also important that matrix degrading enzymes and inhibitors are present.
At room temperature, matrigel polymerizes into a matrix which mimicks a basal membrane of breast cells. The behavior of cells towards a matrigel highly resembles the in vivo situation and therefore this test is acknowledged to be an appropriate approach to the study migration and invasion, and the role of ECM receptors and matrix degrading enzymes in these processes.
In particular for this example, test cells were placed on a matrigel layer in serum-free medium. Subsequently, said cells were allowed to invade into the matrigel layer upon which they move through a filter, and attach to the bottom of said filter. The migration of the cells is stimulated by the presence of conditioned medium, at the other side of the filter, which act as a chemoattractant for the cells.
50 μl matrigel (+/−3 mg/ml serum-free DMEM) was applied in the apical compartment (upper chamber) of 24-well plate inserts having a pore size of 8 μm. After 1 h of polymerization (37° C.) 50.000 BLM cells (in 150 μl serum-free DMEM) were seeded and incubated with varying concentrations of compound 49 (0-100 μM). In the basolateral compartment (lower chamber), 700 μl conditioned medium, containing the same concentration of compound 49 as used in the apical compartment was applied as a chemo-attractant for the cells. The plates were incubated for 24 h at 37° C. and the matrigel and cells at the apical side were removed using wetted cotton swabs (PBSD-). The filters were washed twice on both sides with PBSD- and subsequently incubated for 10 min in ice-cold methanol to fix the cells. To quantify the number of migrated cells, the filters were incubated for 15 min with DAPI and subsequently washed 4×5 min with PBSD-. The filters were then mounted on coverslips and the number of migrated cells was determined for each concentration of compound 49 using a fluorescence microscope.

FaDu cells = assay: MTT test, FaDu; assay type: cell-based, human
Protocol: An MTT test provides an indication of cell viability, proliferation and activity through determination of the mitochondrial conversion of 3-(4,5-dimethylthiazol-2-yl)-2,5-diphenyltetrazolium bromide (MTT), a yellow salt, into formazan, a salt that precipitates under the form of blue crystals.
In concreto, 5,000 cells are seeded in a cup of a 96 well-plate, treated with the desired amount of the test substance, and incubated for a chosen period of time. Next, 40 μL of a filtered (0.2 μm) 5 mg·mL^−1 solution of MTT in PBS is added to the cup. After 2 h of incubation at 37° C. in the dark, all liquid is removed. The obtained formazan salts are dissolved in 200 μL of DMSO, whereupon optical density is measured at 490 nm.
as §1
The CT5.3 cell line consists of human myofibroblasts which were isolated from a colon tumor (Van Hoorde et al., 1999). 3T3-L1 cells are murine fibroblasts, originating from embryo's of Swiss mice (Todaro and Green, 1963). HCT8-E11, FaDu and TR146 are human epithelial cancer cell lines. […]

## COc1cc(C(=O)/C=C/c2ccc(F)cc2)cc(OC)c1OC [Compound 49, (2E)-3-(4-Fluorophenyl)-1-(3,4,5-trimethoxyphenyl)propenone]
3T3-L1 cells
  change in total protein content: −20%
BLM cells; 0.1 μM
  reduction of the number of invasive cells: 80%
BLM cells; 1 μM
  reduction of the number of invasive cells: 67%
  Number of invasive BLM-cells found at the basolateral side of the filter: 282 and 160
BLM cells; 10 μM
  reduction of the number of invasive cells: 93%
  Number of invasive BLM-cells found at the basolateral side of the filter: 57 and 33
BLM cells; 100 μM
  reduction of the number of invasive cells: 98%
FaDu cells; 1 μmol·L−1, 24 h
  mitochondrial activity: the same trend, but without significance
FaDu cells; 10 μmol·L−1, 24 h
  reduction in mitochondrial activity: 30%
